Assay results taken from patent publication US20230055237A1, “COMPOUNDS AND METHODS FOR THE TREATMENT OF CYSTIC FIBROSIS” (Flatley Discovery Lab, LLC, priority 2019, published 2023).

Molecular target: T1, CFTR (Homo sapiens, UniProt P13569, DEL508-508)
T1 construct: Primary CF airway epithelial cells were obtained from the UNC Cystic Fibrosis Tissue Procurement and Cell Culture Core; host or cells: primary CF airway epithelial cells, differentiated at the air-liquid interface
Test: Equivalent current assay in primary CF airway epithelial cells (NAUC, combination with 1st site corrector FDL169 or VX-809)
Type: cell-based
Conditions: 37° C., 24 h

[1] = test compound 1 μM in combination with 1st site corrector VX-809 (3 μM)
[2] = test compound 3 μM in combination with 1st site corrector VX-809 (3 μM)
[3] = test compound 10 μM in combination with 1st site corrector VX-809 (3 μM)
[4] = test compound 1 μM in combination with 1st site corrector FDL169 (3 μM)
[5] = test compound 3 μM in combination with 1st site corrector FDL169 (3 μM)
[6] = test compound 10 μM in combination with 1st site corrector FDL169 (3 μM)

T1 sequence (P13569 with tags, fused parts or gaps DEL508-508): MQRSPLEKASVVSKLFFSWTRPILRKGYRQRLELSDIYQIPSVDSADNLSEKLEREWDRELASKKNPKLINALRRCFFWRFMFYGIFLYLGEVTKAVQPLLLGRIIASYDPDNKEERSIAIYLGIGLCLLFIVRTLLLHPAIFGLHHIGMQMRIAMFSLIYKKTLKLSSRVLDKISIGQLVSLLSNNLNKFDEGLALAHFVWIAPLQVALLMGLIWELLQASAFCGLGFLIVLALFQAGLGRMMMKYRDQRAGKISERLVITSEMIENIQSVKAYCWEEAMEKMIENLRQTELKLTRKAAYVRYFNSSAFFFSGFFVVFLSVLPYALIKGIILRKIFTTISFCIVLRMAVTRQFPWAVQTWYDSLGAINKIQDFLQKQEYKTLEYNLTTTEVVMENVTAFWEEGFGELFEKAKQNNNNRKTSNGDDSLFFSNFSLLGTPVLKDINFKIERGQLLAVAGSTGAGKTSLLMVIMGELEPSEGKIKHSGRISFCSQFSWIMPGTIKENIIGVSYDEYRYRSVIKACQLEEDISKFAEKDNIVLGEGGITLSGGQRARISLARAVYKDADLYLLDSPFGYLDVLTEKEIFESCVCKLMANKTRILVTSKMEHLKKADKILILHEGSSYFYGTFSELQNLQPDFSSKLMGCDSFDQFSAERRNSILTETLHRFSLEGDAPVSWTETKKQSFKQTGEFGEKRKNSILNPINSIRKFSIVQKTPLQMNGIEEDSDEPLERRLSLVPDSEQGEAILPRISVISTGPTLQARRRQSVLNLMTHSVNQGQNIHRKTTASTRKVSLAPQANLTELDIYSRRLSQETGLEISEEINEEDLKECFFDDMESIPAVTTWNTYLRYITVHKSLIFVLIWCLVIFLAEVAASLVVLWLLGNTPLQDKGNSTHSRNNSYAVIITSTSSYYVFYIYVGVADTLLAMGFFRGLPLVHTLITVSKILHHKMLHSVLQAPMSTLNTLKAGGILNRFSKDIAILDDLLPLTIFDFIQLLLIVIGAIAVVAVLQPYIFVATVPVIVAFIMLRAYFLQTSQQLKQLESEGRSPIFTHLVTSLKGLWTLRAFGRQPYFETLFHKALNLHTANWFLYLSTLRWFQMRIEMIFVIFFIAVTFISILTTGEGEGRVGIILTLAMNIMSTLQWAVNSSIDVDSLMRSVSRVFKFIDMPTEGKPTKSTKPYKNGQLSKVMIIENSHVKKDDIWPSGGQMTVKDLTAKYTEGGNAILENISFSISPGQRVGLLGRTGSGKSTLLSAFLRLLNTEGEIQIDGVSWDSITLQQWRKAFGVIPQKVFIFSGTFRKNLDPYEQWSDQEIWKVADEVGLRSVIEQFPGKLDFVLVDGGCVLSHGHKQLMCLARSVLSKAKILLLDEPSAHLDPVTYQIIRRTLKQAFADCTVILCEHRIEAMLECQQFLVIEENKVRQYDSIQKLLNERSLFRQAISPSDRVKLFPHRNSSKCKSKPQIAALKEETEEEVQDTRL

SMILES	Nauc @ 3 μM [2]	Nauc @ 10 μM [3]	further results
CN(C(=O)[C@H]1[C@H]2CCCN2[C@]2(C(=O)Nc3c(Cl)cc(Cl)cc32)[C@H]1C(=O)O)c1cc(Cl)cc(Cl)c1 [Example 266]	+++ (NAUC “+++” refers to an observed NAUC>170% of positive control)	+++ (NAUC “+++” refers to an observed NAUC>170% of positive control)	Nauc @ 1 μM [1]: + (NAUC “+” refers to an observed NAUC <140% of positive control)
CN(CC1(c2cccc(C(C)(C)C)c2)CC1)C(=O)[C@H]1[C@H]2CC(F)(F)CN2[C@]2(C(=O)Nc3c(Cl)cc(Cl)cc32)[C@H]1C(=O)O [Example 112]	+++ (NAUC “+++” refers to an observed NAUC>170% of positive control)	+++ (NAUC “+++” refers to an observed NAUC>170% of positive control)	Nauc @ 1 μM [1]: +++ (NAUC “+++” refers to an observed NAUC>170% of positive control)
O=C(Nc1cc(Cl)cc(Cl)c1)C1C(C(F)(F)c2cccc(C(F)(F)F)c2)NC2(C(=O)Nc3c(Cl)cc(Cl)cc32)C1C(=O)O (stereo not drawn) [Example 70.b]		+ (NAUC “+” refers to an observed NAUC <140% of positive control)	
O=C(Nc1cc(Cl)cc(Cl)c1)C1C2CC(F)(F)CN2C2(C(=O)Nc3c(Cl)cc(Cl)cc32)C1C(=O)O (stereo not drawn) [Example 7]		+++ (NAUC “+++” refers to an observed NAUC>170% of positive control)	
COc1cc(C(F)(F)F)cc(NC(=O)C2C3C[C@@](O)(C(F)(F)F)CN3C3(C(=O)Nc4c(Cl)cc(Cl)cc43)C2C(=O)O)n1 (stereo partly drawn) [Example 22]	++ (NAUC “++” refers to an observed NAUC 170-140% of positive control)	+++ (NAUC “+++” refers to an observed NAUC>170% of positive control)	
CC(C)(C)c1cccc(CNC(=O)C2C3CC(F)(F)CN3C3(C(=O)Nc4c(Cl)cc(Cl)cc43)C2C(=O)O)c1 (stereo not drawn) [Example 54]	+ (NAUC “+” refers to an observed NAUC <140% of positive control)	+++ (NAUC “+++” refers to an observed NAUC>170% of positive control)	
O=C(Nc1cc(C(F)(F)F)ccn1)C1C2CC(F)(F)CN2C2(C(=O)Nc3c(Cl)cc(Cl)cc32)C1C(=O)O (stereo not drawn) [Example 11]	+++ (NAUC “+++” refers to an observed NAUC>170% of positive control)	++ (NAUC “++” refers to an observed NAUC 170-140% of positive control)	
COc1ccc2c(c1)C1(C(=O)N2)[C@@H](C(=O)O)[C@@H](C(=O)N(C)c2cc(Cl)cc(Cl)c2)[C@H]2CC(F)(F)CN21 (stereo partly drawn) [Example 103]			Nauc @ 1 μM [4]: + (NAUC “+” refers to an observed NAUC <140% of positive control); Nauc @ 3 μM [5]: + (NAUC “+” refers to an observed NAUC <140% of positive control); Nauc @ 10 μM [6]: + (NAUC “+” refers to an observed NAUC <140% of positive control)
CN(C(=O)[C@H]1[C@H]2CC(F)(F)CN2[C@]2(C(=O)Nc3c(Cl)cc(Cl)cc32)[C@H]1C(=O)O)c1ccccc1C(F)(F)F [Example 176]			Nauc @ 1 μM [4]: +++ (NAUC “+++” refers to an observed NAUC>170% of positive control); Nauc @ 3 μM [5]: +++ (NAUC “+++” refers to an observed NAUC>170% of positive control)
O=C(O)[C@H]1[C@@H](C(=O)N(CC2CCCC2)c2cccc(C(F)(F)F)c2)[C@H]2CC(F)(F)CN2[C@]12C(=O)Nc1c(Cl)cc(Cl)cc12 [Example 181]			Nauc @ 1 μM [4]: ++ (NAUC “++” refers to an observed NAUC 170-140% of positive control); Nauc @ 3 μM [5]: +++ (NAUC “+++” refers to an observed NAUC>170% of positive control)
Cn1ccc2cc(NC(=O)[C@H]3[C@H]4CC(F)(F)CN4[C@]4(C(=O)Nc5c(Cl)cc(Cl)cc54)[C@H]3C(=O)O)ccc21 [Example 137]			Nauc @ 1 μM [4]: + (NAUC “+” refers to an observed NAUC <140% of positive control); Nauc @ 3 μM [5]: + (NAUC “+” refers to an observed NAUC <140% of positive control)
O=C(Nc1cc(Cl)cc(Cl)c1)C1C(C(F)(F)c2ccccc2Cl)NC2(C(=O)Nc3c(Cl)cc(Cl)cc32)C1C(=O)O (stereo not drawn) [Example 63]		+++ (NAUC “+++” refers to an observed NAUC>170% of positive control)	
CN(C(=O)[C@H]1[C@H]2CC(F)(F)CN2[C@]2(C(=O)N(COC(=O)C(C)(C)C)c3c(Cl)cc(Cl)cc32)[C@H]1C(=O)OCOC(=O)C(C)(C)C)c1cc(Cl)cc(Cl)c1 (racemic) [Example 251c, rac-(pivaloyloxy)methyl (1′R,2′S,3R,7a′R)-5,7-dichloro-1-((3,5-dichlorophenyl)(methyl)carbamoyl)-6′,6′-difluoro-2-oxo-1-((pivaloyloxy)methyl)-1′,2′,5′,6′,7′,7a′-hexahydrospiro[indoline-3,3′-pyrrolizine]-2′-carboxylate]		+ (NAUC “+” refers to an observed NAUC <140% of positive control)	
O=C(Nc1cc(Cl)cc(Cl)c1)C1C(COCc2ccccc2)NC2(C(=O)Nc3c(Cl)cc(Cl)cc32)C1C(=O)O (stereo not drawn) [Example 32]	+++ (NAUC “+++” refers to an observed NAUC>170% of positive control)	+++ (NAUC “+++” refers to an observed NAUC>170% of positive control)	
Cc1nc2ccc(NC(=O)[C@H]3[C@H]4CC(F)(F)CN4[C@]4(C(=O)Nc5c(Cl)cc(Cl)cc54)[C@H]3C(=O)O)cc2s1 [Example 118]	+ (NAUC “+” refers to an observed NAUC <140% of positive control)	+ (NAUC “+” refers to an observed NAUC <140% of positive control)	Nauc @ 1 μM [1]: + (NAUC “+” refers to an observed NAUC <140% of positive control)
COc1cc(C(F)(F)F)cc(NC(=O)C2C3CC(F)(F)CN3C3(C(=O)Nc4c(Cl)cc(Cl)cc43)C2C(=O)O)n1 (single isomer, unassigned) [Example 80.7b.1, 5,7-dichloro-6′,6′-difluoro-1′-((6-methoxy-4-(trifluoromethyl)pyridin-2-yl)carbamoyl)-2-oxo-1′,2′,5′,6′,7′,7a′-hexahydrospiro[indoline-3,3′-pyrrolizine]-2′-carboxylic acid]		+ (NAUC “+” refers to an observed NAUC <140% of positive control)	
O=C(Nc1cc(Cl)cc(Cl)c1)C1C(Cc2ccccc2)NC2(C(=O)Nc3c(Cl)cc(Cl)cc32)C1C(=O)O (stereo not drawn) [Example 34]	+++ (NAUC “+++” refers to an observed NAUC>170% of positive control)	++ (NAUC “++” refers to an observed NAUC 170-140% of positive control)	
CC(C)(C)c1ccc(CCNC(=O)C2C3CC(F)(F)CN3C3(C(=O)Nc4c(Cl)cc(Cl)cc43)C2C(=O)O)cc1 (stereo not drawn) [Example 46]	+++ (NAUC “+++” refers to an observed NAUC>170% of positive control)	+++ (NAUC “+++” refers to an observed NAUC>170% of positive control)	
CC1(C)CC2C(C(=O)Nc3cc(Cl)c(OC(F)F)c(Cl)c3)C(C(=O)O)C3(C(=O)Nc4c(Cl)cc(Cl)cc43)N2C1 (stereo not drawn) [Example 8, 5,7-dichloro-1′-((3,5-dichloro-4-(difluoromethoxy)phenyl)carbamoyl)-6′,6′-dimethyl-2-oxo-1′,2′,5′,6′,7′,7a′-hexahydrospiro[indoline-3,3′-pyrrolizine]-2′-carboxylic acid]	+++ (NAUC “+++” refers to an observed NAUC>170% of positive control)	+++ (NAUC “+++” refers to an observed NAUC>170% of positive control)	
CN(C(=O)C1C2N(CCC2(F)F)C2(C(=O)Nc3c(Cl)cc(Cl)cc32)C1C(=O)O)c1cc(Cl)cc(Cl)c1 (single isomer, unassigned) [Example 268a, 5,7-dichloro-1′-((3,5-dichlorophenyl)(methyl)carbamoyl)-7′,7′-difluoro-2-oxo-1′,2′,5′,6′,7′,7a′-hexahydrospiro[indoline-3,3′-pyrrolizine]-2′-carboxylic acid]	+ (NAUC “+” refers to an observed NAUC <140% of positive control)	+ (NAUC “+” refers to an observed NAUC <140% of positive control)	Nauc @ 1 μM [1]: + (NAUC “+” refers to an observed NAUC <140% of positive control)
COC(=O)[C@@]1(C)[C@@H](C(=O)N(C)c2cc(Cl)cc(Cl)c2)[C@H]2CC(F)(F)CN2C12C(=O)Nc1c(Cl)cc(Cl)cc12 (stereo partly drawn) [Example 282]			Nauc @ 1 μM [4]: + (NAUC “+” refers to an observed NAUC <140% of positive control); Nauc @ 3 μM [5]: + (NAUC “+” refers to an observed NAUC <140% of positive control)
CCCN(C(=O)[C@H]1[C@H]2CC(F)(F)CN2[C@]2(C(=O)Nc3c(Cl)cc(Cl)cc32)[C@H]1C(=O)O)c1cc(Cl)cc(Cl)c1 [Example 172]			Nauc @ 1 μM [4]: +++ (NAUC “+++” refers to an observed NAUC>170% of positive control); Nauc @ 3 μM [5]: +++ (NAUC “+++” refers to an observed NAUC>170% of positive control); Nauc @ 10 μM [6]: +++ (NAUC “+++” refers to an observed NAUC>170% of positive control)
O=C(Nc1cc(Cl)cc(Cl)c1)C1C(C(F)(F)c2ccc(C(F)(F)F)cc2)NC2(C(=O)Nc3c(Cl)cc(Cl)cc32)C1C(=O)O (stereo not drawn) [Example 73.a]		+ (NAUC “+” refers to an observed NAUC <140% of positive control)	
NC(=O)[C@H]1[C@@H](C(=O)Nc2cc(Cl)cc(Cl)c2)[C@H]2CC(F)(F)CN2[C@]12C(=O)Nc1c(Cl)cc(Cl)cc12 [Example 228, (1′R,2′S,3R,7a′R)-5,7-dichloro-N1′-(3,5-dichlorophenyl)-6′,6′-difluoro-2-oxo-1′,2′,5′,6′,7′,7a′-hexahydrospiro[indoline-3,3′-pyrrolizine]-1′,2′-dicarboxamide]	+ (NAUC “+” refers to an observed NAUC <140% of positive control)	+ (NAUC “+” refers to an observed NAUC <140% of positive control)	Nauc @ 1 μM [1]: + (NAUC “+” refers to an observed NAUC <140% of positive control)
COCCN1C(=O)[C@]2(c3cc(Cl)cc(Cl)c31)[C@@H](C(=O)O)[C@@H](C(=O)N(CC1CC1)c1cc(Cl)cc(Cl)c1)[C@H]1CC(F)(F)CN12 [Example 203]			Nauc @ 1 μM [4]: + (NAUC “+” refers to an observed NAUC <140% of positive control); Nauc @ 3 μM [5]: + (NAUC “+” refers to an observed NAUC <140% of positive control)
